Source: ChEMBL document CHEMBL1156987, “Novel azalides derived from 16-membered macrolides. III. Azalides modified at the C-15 and 4'' positions: Improved antibacterial activities” (Bioorg Med Chem, 2010)
In brackets after ≈: the same amount, converted by molar mass.

Experiments:
Type in all cases: functional
Staphylococcus aureus = assay: Antibacterial activity against Staphylococcus aureus 209P JC1 after 20 hrs by agar dilution method; conditions: 209P JC1, 20 h
Streptococcus pneumoniae [1] = assay: Antibacterial activity against Streptococcus pneumoniae DP1 type 1 after 20 hrs by agar dilution method; conditions: DP1 type1, 20 h
Streptococcus pneumoniae [2] = assay: Antibacterial activity against Streptococcus pneumoniae 5 expressing constitutive ermB methylase after 20 hrs by agar dilution method; conditions: Streptococcus pneumoniae, 5, 20 h
Streptococcus pneumoniae [3] = assay: Antibacterial activity against Streptococcus pneumoniae 6 expressing constitutive ermB methylase and mefA after 20 hrs by agar dilution method; conditions: Streptococcus pneumoniae, 6, 20 h
Streptococcus pneumoniae [4] = assay: Antibacterial activity against Streptococcus pneumoniae 7 expressing constitutive ermB methylase after 20 hrs by agar dilution method; conditions: Streptococcus pneumoniae, 7, 20 h
Streptococcus pneumoniae [5] = assay: Antibacterial activity against Streptococcus pneumoniae 8 expressing inducible ermB methylase after 20 hrs by agar dilution method; conditions: Streptococcus pneumoniae, 8, 20 h
Streptococcus pneumoniae [6] = assay: Antibacterial activity against Streptococcus pneumoniae 9 expressing inducible ermB methylase after 20 hrs by agar dilution method; conditions: Streptococcus pneumoniae, 9, 20 h
Streptococcus pneumoniae [7] = assay: Antibacterial activity against Streptococcus pneumoniae 10 expressing mefA efflux pump after 20 hrs by agar dilution method; conditions: Streptococcus pneumoniae, 10, 20 h
Streptococcus pneumoniae [8] = assay: Antibacterial activity against Streptococcus pneumoniae 11 expressing mefA efflux pump after 20 hrs by agar dilution method; conditions: Streptococcus pneumoniae, 11, 20 h
Streptococcus pyogenes [9] = assay: Antibacterial activity against Streptococcus pyogenes Cook after 20 hrs by agar dilution method
Streptococcus pyogenes [10] = assay: Antibacterial activity against Streptococcus pyogenes 2 expressing constitutive ermB methylase after 20 hrs by agar dilution method; conditions: Streptococcus pyogenes, 2, 20 h
Streptococcus pyogenes [11] = assay: Antibacterial activity against Streptococcus pyogenes 3 expressing mefA efflux pump after 20 hrs by agar dilution method; conditions: Streptococcus pyogenes, 3, 20 h
Haemophilus influenzae [12] = assay: Antibacterial activity against Haemophilus influenzae 1 after 20 hrs by agar dilution method; conditions: Haemophilus influenzae, 1, 20 h
Haemophilus influenzae [13] = assay: Antibacterial activity against Haemophilus influenzae 2 after 20 hrs by agar dilution method; conditions: Haemophilus influenzae, 2, 20 h
Haemophilus influenzae [14] = assay: Antibacterial activity against Haemophilus influenzae 3 after 20 hrs by agar dilution method; conditions: Haemophilus influenzae, 3, 20 h

Row | Structure (SMILES) | MIC (Staphylococcus aureus) [µg/mL] | MIC (Streptococcus pneumoniae [1]) [µg/mL] | MIC (Streptococcus pneumoniae [2]) [µg/mL] | MIC (Streptococcus pneumoniae [3]) [µg/mL] | MIC (Streptococcus pneumoniae [4]) [µg/mL] | MIC (Streptococcus pneumoniae [5]) [µg/mL] | MIC (Streptococcus pneumoniae [6]) [µg/mL] | MIC (Streptococcus pneumoniae [7]) [µg/mL] | MIC (Streptococcus pneumoniae [8]) [µg/mL] | MIC (Streptococcus pyogenes [9]) [µg/mL] | MIC (Streptococcus pyogenes [10]) [µg/mL] | MIC (Streptococcus pyogenes [11]) [µg/mL] | MIC (Haemophilus influenzae [12]) [µg/mL] | MIC (Haemophilus influenzae [13]) [µg/mL] | MIC (Haemophilus influenzae [14]) [µg/mL]
1 | CCNC(=O)O[C@H]1[C@H](C)O[C@@H](O[C@H]2[C@H](N(C)C)[C@@H](O)[C@H](O[C@H]3[C@@H](CC=O)C[C@@H](C)[C@@H](O)CN(C)CCC[C@H](C/C=C/c4cccnc4)OC(=O)C[C@@H](OC(=O)CC)[C@@H]3OC)O[C@@H]2C)C[C@@]1(C)OC(=O)CC | 0.5 (≈ 0.496 µM) | 0.015 (≈ 0.0149 µM) | 32 (≈ 31.8 µM) | 32 (≈ 31.8 µM) | 32 (≈ 31.8 µM) | 0.5 (≈ 0.496 µM) | 0.5 (≈ 0.496 µM) | 0.06 (≈ 0.0596 µM) | 0.06 (≈ 0.0596 µM) | 0.13 (≈ 0.129 µM) | > 64 | 0.5 (≈ 0.496 µM) | 4 (≈ 3.97 µM) | 16 (≈ 15.9 µM) | 32 (≈ 31.8 µM)
2 | CCNC(=O)O[C@H]1[C@H](C)O[C@@H](O[C@H]2[C@H](N(C)C)[C@@H](O)[C@H](O[C@H]3[C@@H](CC=O)C[C@@H](C)[C@@H](O)CN(C)CCC[C@H](C/C=C/c4ccc(N)nc4)OC(=O)C[C@@H](OC(=O)CC)[C@@H]3OC)O[C@@H]2C)C[C@@]1(C)OC(=O)CC | 1 (≈ 0.978 µM) | 0.03 (≈ 0.0293 µM) | 8 (≈ 7.83 µM) | 8 (≈ 7.83 µM) | 8 (≈ 7.83 µM) | 0.25 (≈ 0.245 µM) | 0.5 (≈ 0.489 µM) | 0.06 (≈ 0.0587 µM) | 0.06 (≈ 0.0587 µM) | 0.13 (≈ 0.127 µM) | > 32 | 0.5 (≈ 0.489 µM) | 4 (≈ 3.91 µM) | 16 (≈ 15.7 µM) | 32 (≈ 31.3 µM)
3 | CCC(=O)O[C@@H]1CC(=O)O[C@@H](C/C=C/c2ccc3ccccc3c2)CCCN(C)C[C@H](O)[C@H](C)C[C@H](CC=O)[C@H](O[C@@H]2O[C@H](C)[C@@H](O[C@H]3C[C@@](C)(O)[C@@H](OC(=O)CC)[C@H](C)O3)[C@H](N(C)C)[C@H]2O)[C@H]1OC | 0.5 (≈ 0.507 µM) | 0.06 (≈ 0.0609 µM) | 32 (≈ 32.5 µM) | 32 (≈ 32.5 µM) | 32 (≈ 32.5 µM) | 8 (≈ 8.12 µM) | 8 (≈ 8.12 µM) | 0.13 (≈ 0.132 µM) | 0.13 (≈ 0.132 µM) | 0.25 (≈ 0.254 µM) | 32 (≈ 32.5 µM) | 1 (≈ 1.01 µM) | 8 (≈ 8.12 µM) | 16 (≈ 16.2 µM) | 16 (≈ 16.2 µM)
4 | CCNC(=O)O[C@H]1[C@H](C)O[C@@H](O[C@H]2[C@H](N(C)C)[C@@H](O)[C@H](O[C@H]3[C@@H](CC=O)C[C@@H](C)[C@@H](O)CN(C)CCC[C@H](C/C=C/c4cnc5ccccc5c4)OC(=O)C[C@@H](O)[C@@H]3OC)O[C@@H]2C)C[C@@]1(C)OC(=O)CC | 0.25 (≈ 0.25 µM) | < 0.008 | 4 (≈ 4 µM) | 4 (≈ 4 µM) | 4 (≈ 4 µM) | 0.06 (≈ 0.0599 µM) | 0.06 (≈ 0.0599 µM) | 0.015 (≈ 0.015 µM) | 0.015 (≈ 0.015 µM) | 0.06 (≈ 0.0599 µM) | 8 (≈ 7.99 µM) | 0.06 (≈ 0.0599 µM) | 2 (≈ 2 µM) | 4 (≈ 4 µM) | 4 (≈ 4 µM)
5 | CCNC(=O)O[C@H]1[C@H](C)O[C@@H](O[C@H]2[C@H](N(C)C)[C@@H](O)[C@H](O[C@H]3[C@@H](CC=O)C[C@@H](C)[C@@H](O)CN(C)CCC[C@H](C/C=C/c4cncc5ccccc45)OC(=O)C[C@@H](O)[C@@H]3OC)O[C@@H]2C)C[C@@]1(C)OC(=O)CC | 0.25 (≈ 0.25 µM) | < 0.008 | 2 (≈ 2 µM) | 4 (≈ 4 µM) | 4 (≈ 4 µM) | 0.06 (≈ 0.0599 µM) | 0.06 (≈ 0.0599 µM) | 0.015 (≈ 0.015 µM) | 0.015 (≈ 0.015 µM) | 0.03 (≈ 0.03 µM) | 32 (≈ 32 µM) | 0.13 (≈ 0.13 µM) | 2 (≈ 2 µM) | 4 (≈ 4 µM) | 4 (≈ 4 µM)
6 | CCNC(=O)O[C@H]1[C@H](C)O[C@@H](O[C@H]2[C@H](N(C)C)[C@@H](O)[C@H](O[C@H]3[C@@H](CC=O)C[C@@H](C)[C@@H](O)CN(C)CCC[C@H](C/C=C/c4ccc(N)nc4)OC(=O)C[C@@H](O)[C@@H]3OC)O[C@@H]2C)C[C@@]1(C)OC(=O)CC | 2 (≈ 2.07 µM) | 0.03 (≈ 0.0311 µM) | 4 (≈ 4.14 µM) | 4 (≈ 4.14 µM) | 4 (≈ 4.14 µM) | 0.25 (≈ 0.259 µM) | 0.25 (≈ 0.259 µM) | 0.06 (≈ 0.0621 µM) | 0.13 (≈ 0.135 µM) | 0.13 (≈ 0.135 µM) | 16 (≈ 16.6 µM) | 0.13 (≈ 0.135 µM) | 4 (≈ 4.14 µM) | 8 (≈ 8.28 µM) | 16 (≈ 16.6 µM)
7 | CCNC(=O)O[C@H]1[C@H](C)O[C@@H](O[C@H]2[C@H](N(C)C)[C@@H](O)[C@H](O[C@H]3[C@@H](CC=O)C[C@@H](C)[C@@H](O)CN(C)CCC[C@H](C/C=C/c4cnc(N)c5ccccc45)OC(=O)C[C@@H](O)[C@@H]3OC)O[C@@H]2C)C[C@@]1(C)OC(=O)CC | 0.5 (≈ 0.492 µM) | 0.015 (≈ 0.0148 µM) | 1 (≈ 0.984 µM) | 1 (≈ 0.984 µM) | 1 (≈ 0.984 µM) | 0.06 (≈ 0.059 µM) | 0.03 (≈ 0.0295 µM) | 0.015 (≈ 0.0148 µM) | 0.015 (≈ 0.0148 µM) | 0.03 (≈ 0.0295 µM) | 2 (≈ 1.97 µM) | 0.03 (≈ 0.0295 µM) | 2 (≈ 1.97 µM) | 4 (≈ 3.94 µM) | 8 (≈ 7.87 µM)
